Assay results published in US12655101B2, “Small molecules with antibacterial activity” (NEW MEXICO TECH UNIVERSITY RESEARCH PARK CORPORATION, priority 2021, dated 2026).
In brackets after ≈: the same amount, converted by molar mass. Like-named read-outs stand apart in the source and are kept apart here.

Experiments:
MRSA ATCC BAA-44 = assay: MIC on MRSA ATCC BAA-44; format: cell-based, S. aureus; conditions: for MIC: Staphylococcus aureus
Description: MRSA BAA-44: MRSA ATCC BAA-44 was grown from a glycerol stock by placing a small volume of cells onto a Mueller-Hinton agar plate (MHA). The MHA plate was incubated overnight at 37° C. A single colony was used to inoculate Mueller-Hinton broth (MHB) to obtain a bacterial broth suspension. The MHB broth suspension was grown at 37° C. on a rotary shaking incubator (100 rpm) for 12 hours. The bacterial cell concentration was adjusted to ˜5×10^5 colony forming units per milliliter (CFU/mL) in MHB−/+10, 20, or 40% FBS using optical density (OD) at 595 nm. 500 μL aliquots of the adjusted bacterial cell suspension were placed into borosilicate glass tubes. The cell suspensions were treated with 100 μM compound of interest and serially diluted two-fold. The culture tubes were incubated for 18 hours at 37° C. Efficacy was either assessed visually or by adding 10% v/v MTT (5 mg/mL stock) after the 18 hour incubation period, where the cell suspensions were subsequently incubated for 10 minutes to allow the MTT reagent to carry out the colorimetric reaction.

[1] = system: A. baumannii ATCC BAA-1797; assay: MIC on A. baumannii ATCC BAA-1797; format: cell-based; conditions: Acinetobacter baumannii
Outline: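 Cells adjusted to ~5×10^5 CFU/mL in MHB or MHB with 10%, 20% or 40% FBS, treated with two-fold serial compound dilutions in glass tubes and incubated 18 hours at 37° C. Growth read visually or by MTT (10% v/v, 10 min) with OD at 595 nm.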

HeLa cells [2] = assay: HeLa cell toxicity IC50 (MTT); format: cell-based; conditions: Homo sapiens, 10% FBS
Description: HeLa cells: HeLa cells were trypsinized and counted in number of cells/mL using a hemocytometer. Cells were then plated at 4×10^3 HeLa cells/100 μL in tissue culture-treated 96-well plates in DMEM+1% penicillin/streptomycin (P/S)+10% FBS. HeLa cells were treated with 100 μM of a compound of interest and serially diluted two-fold. Samples were also prepared with no treatment, 1% DMSO, and 100 μM PAO. The cells were incubated for 48 hours at 37° C. in a humidified incubator with 5% CO2. 10% v/v MTT reagent (5 mg/mL stock) was added to each sample, and the samples were incubated for 2 hours before removing the supernatant and solubilizing the samples in 100 μL DMSO. OD readings were obtained at 595 nm. IC50 values were reported.

A. baumannii ATCC 15151 [3] = assay: MIC on A. baumannii ATCC 15151; format: cell-based; conditions: Acinetobacter baumannii, ATCC15151; A. baumannii ATCC 15151 (heading of Example 9)
[4] = system: A. baumannii ATCC BAA-1797; assay: Colony counts of A. baumannii ATCC BAA-1797 treated with 4xMIC for 16 hours; format: cell-based; conditions: for kill of A. baumannii ATCC BAA-1797: 4xMIC (24 μM Compound 25, 24 μM Compound 26, 100 μM Compound 27, 48 μM Compound 14, 100 μM Compound 15)
[5] = system: drug-resistant A. baumannii strains obtained from the CDC and Prevention Antimicrobial Isolate Bank; assay: MIC on drug-resistant A. baumannii strains from the CDC Antimicrobial Isolate Bank; format: cell-based; conditions: Acinetobacter baumannii, 18 h
A. baumannii ATCC 15151 [6] = assay: ATP decrease (luciferase); format: cell-based; conditions: 1xMIC and 2xMIC; 25 minutes
A. baumannii ATCC 1515 = assay: Membrane depolarization detected by DiOC2(3); format: cell-based; conditions: 1xMIC; for cell membrane depolarization over time: 10, 20, 30, and 50 minutes
A. baumannii ATCC 15151 [7] = assay: microbe, parasite or virus in culture; format: cell-based; conditions: for Evolution of resistance?: Table 7; for MIC: Acinetobacter baumannii
Description: A. baumannii ATCC 15151 was grown from a glycerol stock by placing a small volume of cells onto a MHA plate. The MHA plate was incubated overnight at 37° C. A single colony was subsequently used to inoculate MHB to obtain a bacterial broth suspension. The MHB broth suspension was grown at 37° C. on a rotary shaking incubator (100 rpm) for 12 hours. The bacterial cell concentration was adjusted to ˜5×10^5 CFU/mL in MHB or MHB using OD at 595 nm. […] (PAO) and the negative control was non-treated cells. All treatments were performed in triplicate. The plate was incubated for 20 hours at 37° C. in a Tecan plate reader, where the cells were shaken every hour and an OD reading was taken at 600 nm. […] These cells were again plated in a 96-well plate and incubated as before. This was performed a total of 30 days.

A. baumannii = assay: Synergy with PME (Table 7); format: cell-based
HeLa cells [8] = assay: HeLa cell toxicity IC50 (MTT); format: cell-based; conditions: Homo sapiens
[9] = MRSA ATCC BAA-44, serum not stated, read-out: MIC
[10] = ATCC 1797 / ATCC BAA-1797, 0% FBS, read-out: MIC (μM) in MDR A. baumannii ATCC 1797 0% FBS
[11] = ATCC 1797 / ATCC BAA-1797, 10% FBS, read-out: MIC (μM) in MDR A. baumannii ATCC 1797 10% FBS
[12] = ATCC 1797 / ATCC BAA-1797, read-out: MIC (μM) in MDR A. baumannii ATCC 1797 40% FBS, 40% FBS
[13] = ATCCBAA1797, 18 h, read-out: MIC in the presence of 40% FBS, A. baumannii ATCC BAA-1797, 40% FBS
[14] = ATCCBAA1797, A. baumannii ATCC BAA-1797, absence of serum, read-out: MIC in the absence of serum
[15] = ATCCBAA1797, Table 7, 10% FBS, read-out: MIC in 10% FBS
[16] = ATCCBAA1797, Table 7, no serum stated, read-out: MIC
[17] = ATCCBAA1797, read-out: MIC in 40% FBS (μM), Table 7, 40% FBS
[18] = HeLa, Table 7, read-out: IC50 on HeLa in 10% FBS
[19] = HeLa cells, read-out: IC50 10% FBS
[20] = A. baumannii CDC AR033, 18 hours, read-out: MIC values for AR033
[21] = A. baumannii CDC AR083, 18 hours, read-out: MIC values for AR083
[22] = HeLa, read-out: IC50 on HeLa in 40% FBS, Table 7
[23] = read-out: IC50 40% FBS, HeLa cells
[24] = 18 h, read-out: MIC in the presence of 40% FBS, MRSA ATCC BAA-44, 40% FBS
[25] = MRSA ATCC BAA-44, absence of serum, read-out: MIC in the absence of serum

SMILES | MIC (MRSA ATCC BAA-44; [9]) | MIC [1, 10] | MIC [1, 11] | MIC [1, 12] | MIC [1, 13] | MIC [1, 14] | MIC [1, 15] | MIC [1, 16] | MIC [1, 17] | IC50 (HeLa cells [2]; [18]) | IC50 (HeLa cells [2]; [19]) | MIC (A. baumannii ATCC 15151 [3]) | Kill at 4X MIC at 16 hours [4] | kill of A. baumannii ATCC BAA-1797 [4] | MIC [5, 20] | MIC [5, 21] | ATP decrease (A. baumannii ATCC 15151 [6]) | Evolution of resistance? (A. baumannii ATCC 15151 [7]) | IC50 (HeLa cells [8]; [22]) | IC50 (HeLa cells [8]; [23]) | other results
Cl.Fc1ccc(N/N=C/c2c[nH]c3cccc(OCc4ccccc4)c23)cc1 [Compound 27, (E)-2-((4-(benzyloxy)-1H-indol-3-yl)methylene)-1-(4-fluorophenyl)hydrazin-1-ium] | 100 µM | 12.5 µM | > 100 µM | 50 µM | 25 µM | 5 µM | > 100 µM | 12.5 µM | 50 µM | 25.8 ± 5.2 µM | 25.8 ± 5.2 µM | 12.5 µM | 5-logs | ~5 orders of magnitude | 25 µM | 12.5 µM | caused a decrease in ATP | Yes; 4-fold | 69.7 µM | 69.7 µM | MIC (MRSA ATCC BAA-44; no serum (note in the cell), read-out: MIC (μM) in MRSA BAA-44): 100 µM; cell membrane depolarization over time (A. baumannii ATCC 1515): caused the most depolarization; Synergize with PME? (A. baumannii): Yes, at 6 μM
Clc1ccc(N/N=C/c2c[nH]c3ccc(Br)cc23)cc1 [Compound 15, (E)-5-bromo-3-((2-(4-chlorophenyl)hydrazineylidene)methyl)-1H-indole] | – | 12.5 µM (≈ 4.36 µg/mL) | > 100 µM | 50 µM (≈ 17.4 µg/mL) | 100 µM | 6 µM (≈ 2.09 µg/mL) | > 100 µM | 12.5 µM (≈ 4.36 µg/mL) | > 100 µM | 20.9 ± 1.5 µM | 20.9 ± 1.5 µM | 12.5 µM (≈ 4.36 µg/mL) | 6-logs | ~5 orders of magnitude | 25 µM (≈ 8.72 µg/mL) | 12.5 µM (≈ 4.36 µg/mL) | caused a decrease in ATP | Yes; >4-fold | 67.4 µM | 67.4 µM | MIC (MRSA ATCC BAA-44; [24]): > 100 µM; MIC (MRSA ATCC BAA-44; [25]): 50 µM (≈ 17.4 µg/mL); cell membrane depolarization over time (A. baumannii ATCC 1515): caused the most depolarization
Nc1cccc2[nH]cc(/C=N/Nc3ccc(Cl)cc3)c12 [Compound 14, (E)-3-((2-(4-chlorophenyl)hydrazineylidene)methyl)-1H-indol-4-amine] | 50 to 100 µM (≈ 14.2 to 28.5 µg/mL) | 6 µM (≈ 1.71 µg/mL) | > 100 µM | 50 µM (≈ 14.2 µg/mL) | 50 µM | – | > 100 µM | 6 µM (≈ 1.71 µg/mL) | 50 µM (≈ 14.2 µg/mL) | 36.7 ± 3.8 µM | 36.7 ± 3.8 µM | 6 µM (≈ 1.71 µg/mL) | 5-logs | ~5 orders of magnitude | 25 µM (≈ 7.12 µg/mL) | – | caused a decrease in ATP | Yes; >6-fold | 183 µM | 183 µM | MIC (MRSA ATCC BAA-44; [24]): 100 µM; MIC (MRSA ATCC BAA-44; [25]): 50 µM (≈ 14.2 µg/mL); toxicity to MRSA BAA-44 (MRSA ATCC BAA-44; absence of serum): toxic; MIC ([1]; ATCCBAA1797, read-out: MIC in the absence of serum): 12.5 µM (≈ 3.56 µg/mL); MIC ([1]; ATCCBAA1797, read-out: MIC in the presence of 40% human serum, A. baumannii ATCC BAA-1797, 40% human serum): > 100 µM; MIC ([5]; read-out: MIC values for AR083): 12.5 µM (≈ 3.56 µg/mL); cell membrane depolarization (A. baumannii ATCC 1515; 20 μM CCCP, 25 minutes): depolarized the cell membrane; change of MIC from Day 0 to Day 30 (A. baumannii ATCC 15151 [7]; 30 days): 8 fold; development of resistance (A. baumannii ATCC 15151 [7]; 30 days): significant resistance; MIC (A. baumannii ATCC 15151 [7]; ATCC15151, 0 h, read-out: Starting MIC Day 0, A. baumannii ATCC 15151, Day 0): 12.5 µM (≈ 3.56 µg/mL); MIC (A. baumannii ATCC 15151 [7]; ATCC15151, read-out: Final MIC Day 30, A. baumannii ATCC 15151, Day 30): ≥ 100 µM; Synergize with PME? (A. baumannii): Yes, at 4 μM
